The values below are quoted from earlier work in patent US10640746B2, “Synthetic methylotrophs” (UNIVERSITY OF DELAWARE, priority 2016, dated 2020).

Common to all, as to settings: in vitro
Data set [1] has as its system Bacillus stearothermophilus 2334 (Bst) methanol dehydrogenase (Bst Mdh, BsMdh).
In data set [2] the test system is Bacillus methanolicus MGA3 (Bme) methanol dehydrogenase 3 (Bme Mdh3, BmMdh3).
Data set [3] has as its system Corynebacterium glutamicum R (Cgl R) alcohol dehydrogenase A (Cgl AdhA, CgAdhA; GenBank BAF55711.1; SEQ ID NO: 1).

For the compound `CCO` [EtOH, ethanol], the Km in data set [1] was 0.08 mM; in data set [3] it was 6.8 mM. Besides, the Vmax was 2 µmol/min/mg in data set [2] and 7.8 µmol/min/mg in data set [3].

Consider `CO` [MeOH, methanol], for which the Km is 20 mM in data set [1] and 3 mM in data set [3]. Also, the Vmax in data set [1] is 2.1 µmol/min/mg; in data set [2], 0.07 µmol/min/mg; in data set [3], 0.7 µmol/min/mg.

For `CCCCO` [n-BuOH, n-butanol], the Km is 0.01 mM in data set [1] and 35 mM in data set [3]. The Vmax in data set [2] was 2.3 µmol/min/mg; in data set [3] it was 8.9 µmol/min/mg.

For the compound `CCCO` [n-PrOH, propanol], the values for the Km in data set [1] and in data set [3] were 0.02 mM and 7.5 mM, respectively. Besides, the values for the Vmax in data set [2] and in data set [3] were 3.5 µmol/min/mg and 7.7 µmol/min/mg, respectively.

The term Km denotes the substrate concentration at which the rate is half of its maximum. By Vmax is commonly meant the rate approached at saturating substrate.
